Measured values published in PubChem BioAssay (NCI).
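Step 1: Grow cells in 96-well plates. Step 2: Expose to compound for 48 hours at 5 concentrations. Step 3: Interpolate endpoints linearly; if unreached, use highest concentration. At the GI50, growth is halved. TGI marks complete inhibition of growth.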

What was measured:
Assay in all cases: NCI anticancer screen, dose series, 48 h
MCF7 breast = tested on: MCF7 breast
HCT-15 colon = tested on: HCT-15 colon
MALME-3M melanoma = tested on: MALME-3M melanoma
T-47D breast = tested on: T-47D breast
786-0 renal = tested on: 786-0 renal
NCI/ADR-RES ovarian = tested on: NCI/ADR-RES ovarian
SK-MEL-2 melanoma = tested on: SK-MEL-2 melanoma
UO-31 renal = tested on: UO-31 renal
SW-620 colon = tested on: SW-620 colon
NCI-H226 lung = tested on: NCI-H226 lung

SMILES | GI50 (MCF7 breast) [µM] | TGI (MCF7 breast) [µM] | GI50 (HCT-15 colon) [µM] | TGI (HCT-15 colon) [µM] | GI50 (MALME-3M melanoma) [µM] | TGI (MALME-3M melanoma) [µM] | GI50 (T-47D breast) [µM] | TGI (T-47D breast) [µM] | GI50 (786-0 renal) [µM] | TGI (786-0 renal) [µM] | GI50 (NCI/ADR-RES ovarian) [µM] | TGI (NCI/ADR-RES ovarian) [µM] | GI50 (SK-MEL-2 melanoma) [µM] | TGI (SK-MEL-2 melanoma) [µM] | GI50 (UO-31 renal) [µM] | TGI (UO-31 renal) [µM] | GI50 (SW-620 colon) [µM] | TGI (SW-620 colon) [µM] | GI50 (NCI-H226 lung) [µM] | TGI (NCI-H226 lung) [µM]
Cc1ccc(N2C(=O)C(Cl)=C(Nc3cccc(O)c3)C2=O)cc1Cl | 6.16 | 32 | 18.6 | 40.1 | 17.2 | 31.4 | 49.6 | > 100 | 19.3 | 52 | 21.6 | 54.7 | 38 | > 100 | 26.1 | 75.8 |  |  |  | 
CCCCc1cc(O)ccc1O | 40.4 | > 100 | 28.2 | > 100 | 21.6 | 65.4 | 15.9 | 67.5 | 12.2 | > 100 | 23.2 | > 100 | 35.8 | > 100 | 10.8 | 28.1 | 33.8 | > 100 | 48.8 | > 100
CC/C=C\C[C@H](O)C/C=C1/C(=O)C=C[C@@H]1C/C=C\CCCC(N)=O | 0.626 | 11.7 | 1.74 | 5.69 | 2.06 | 5.23 | 3.14 | 15.3 | 1.94 | 3.62 | 2.81 | 12.3 | 2.31 | 5.69 | 1.63 | 3.42 | 1.58 | 5.33 | 2.34 | 5.48
C=C1C(=O)O[C@H]2[C@H]1CC/C(COC(=O)c1ccc(C(=O)O)s1)=C\CC[C@@]1(C)O[C@@H]21 |  |  | 1.65 | 4.72 | 2.44 | 4.25 | 2.22 | 5.53 | 1.54 | 3.09 | 3.4 | 26.2 | 2.29 | 5.22 | 1.4 | 3.04 | 1.61 | 3.79 | 12.2 | 30.5
Cc1ccc(-c2cc3nc(-c4ccccc4)nc(C(Cl)Cl)n3n2)cc1 | 0.845 | 4.55 | 0.958 | 3.13 | 36.1 | > 50 | 0.718 | 2.3 | 1.06 | 2.37 | 0.789 | 2.42 | 2.51 | 19.7 | 0.719 | 1.41 | 0.851 | 2.29 | > 50 | > 50
O=C1Cc2c(-c3ccccc3)cc(-c3cccc(Cl)c3)nc2-c2ccccc2N1 |  | > 22.6 |  | 17.6 |  | 13.3 |  | 6.01 | 0.977 | 2.42 |  | 7.46 |  | 24.4 |  | 11.2 |  | > 100 |  | 17.7
COC1C(=O)CCC2(CO2)C1(O)C1(C)OC1CCC(C)C (stereo not given) |  | > 100 |  | > 100 |  | > 100 |  | > 100 |  | > 100 |  | > 100 |  |  |  | > 100 |  | > 100 |  | > 100
O=C1OCC2=Nc3cccc4cccc(c34)N12 |  | > 100 |  | > 100 |  |  |  | > 100 |  | > 100 |  | > 100 |  |  |  | > 100 |  | > 100 |  | > 100
OCC1OC(N2C=C(c3nc4ccccc4s3)C3C=CC=CC32)C(O)C1O (stereo not given) | 5.95 | > 50 | 7.92 | 22 |  |  |  |  | 8.68 | 19.5 | 12.2 | 36.9 | 29.7 | > 50 | 17.7 | > 50 | 9.82 | > 50 | 8.81 | 25.5
CCOC(=O)/C(C1=CC(=O)C(=O)c2ccccc21)=C(/C)NCc1ccccc1 | 2.05 | 4.75 | 1.75 | 3.6 | 1.66 | 3.57 | 2.27 | > 100 | 1.29 | 2.88 | 2.02 | 5.08 | 5.87 | > 100 | 3.35 | > 100 | 1.64 | 3.3 | 2.62 | 6.38
OCCCNCc1ccccn1 |  | > 100 |  | > 100 |  | > 100 |  | > 100 |  | > 100 |  | > 100 |  | > 100 |  | > 100 |  | > 100 |  | > 100
CN(C)CCNC(=O)c1cc([N+](=O)[O-])cc2ccc(-c3ccccc3)nc12 |  | > 100 |  | > 56.6 |  | 19.5 |  |  |  | 94.3 |  | 9.97 |  | 28.7 |  | 11.2 |  | > 38.7 |  | 11.8
CCN(CC)CC(C)Nc1ccc(C)c2sc3ccccc3c(=O)c12 (stereo not given) | 2.1 | 6.96 | 3.39 | 14.7 | 2.45 | 8.29 | 3.28 | 19.4 | 3.14 | 11.2 | 5.56 | 18.7 | 9.07 | 25.5 | 1.77 | 7.69 | 3.33 | 13.7 | 4.21 | 18.8
COc1ccc(N=Cc2ccc(N(CCC#N)CCC#N)cc2)cc1 |  | > 100 |  | > 100 |  | > 100 |  | > 100 |  | > 100 |  | > 100 |  | > 84.2 |  | > 100 |  | > 100 |  | > 100
Nc1ccc2c(c1)[O][Sn]([c]1ccccc1)([c]1ccccc1)[O]C2=O | 3.95 | 8.52 | 6.8 | 17.9 | 3.18 | 8.22 |  |  | 3.79 | 7.95 | 9.08 | 30.2 | 6.19 | 17.6 | 12.5 | 26 | 2.93 | 8.35 | 9.13 | 16.7
